The source of these data is patent US12252488B2 (Nimbus Saturn, Inc., priority 2021, dated 2025).

Each structure is given as a SMILES string. Bounds are passed on as bounds.

As a reminder, the IC50 is the point on the concentration scale where inhibition reaches its midpoint.

The target in the assay is T1, HPK1 (Homo sapiens, UniProt Q92918).
T1 construct: purchased Invitrogen
T1 sequence (Q92918 whole entry): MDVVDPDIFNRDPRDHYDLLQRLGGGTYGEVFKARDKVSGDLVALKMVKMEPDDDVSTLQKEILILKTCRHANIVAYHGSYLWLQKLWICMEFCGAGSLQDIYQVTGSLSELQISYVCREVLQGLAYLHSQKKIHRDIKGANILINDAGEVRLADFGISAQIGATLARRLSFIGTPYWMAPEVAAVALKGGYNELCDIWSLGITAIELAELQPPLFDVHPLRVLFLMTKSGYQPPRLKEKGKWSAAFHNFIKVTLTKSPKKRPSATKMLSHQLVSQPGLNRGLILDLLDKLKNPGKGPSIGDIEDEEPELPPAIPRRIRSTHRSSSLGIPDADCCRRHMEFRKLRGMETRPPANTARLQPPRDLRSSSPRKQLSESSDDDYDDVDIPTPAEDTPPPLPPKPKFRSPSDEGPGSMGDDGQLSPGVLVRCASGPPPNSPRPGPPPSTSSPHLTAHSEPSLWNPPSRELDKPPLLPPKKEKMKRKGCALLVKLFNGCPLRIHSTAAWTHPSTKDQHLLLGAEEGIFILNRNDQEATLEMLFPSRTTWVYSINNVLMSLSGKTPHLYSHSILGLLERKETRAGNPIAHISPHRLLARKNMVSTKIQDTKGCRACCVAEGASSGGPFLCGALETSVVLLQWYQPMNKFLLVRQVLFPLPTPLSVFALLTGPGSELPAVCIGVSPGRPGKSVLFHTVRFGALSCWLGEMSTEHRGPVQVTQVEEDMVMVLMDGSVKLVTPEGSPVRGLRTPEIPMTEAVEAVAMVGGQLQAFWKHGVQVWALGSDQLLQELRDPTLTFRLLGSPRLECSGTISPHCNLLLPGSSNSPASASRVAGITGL
Nature of the assay: HPK1 biochemical enzyme assay (microfluidic mobility shift assay). To be noted: 1000 uM (1 mM) ATP; Caliper mobility shift; 1.5 nM HPK1; 30 min preincubation; read-out: HPK1 1000UMATP caliper IC50. Summed up: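 IC50 values, grouped into activity categories, come from 10-point titrations (top final 3 μM) preincubated 30 min with 1.5 nM enzyme and substrate at pH 7.4. ATP (1 mM), substrate (1 μM) and MgCl2 (5 mM) then added; after 60 min at RT, product separated by microfluidic mobility shift.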
As for `O=c1[nH]ccc2nc(-c3cnc4ccccn34)cc(Nc3ccc(N4CCC(O)CC4)cn3)c12` [I-284, 4-[[5-(4-hydroxy-1-piperidy)-2-pyridyl]amino]-2-imidazo[1,2-a]pyridin-3-yl-6H-1,6-naphthyridin-5-one], the IC50 was above 1000 nM.

Take `CNC(C)(c1ccc(F)c(-c2cc(Nc3ccc(N4CCC(O)CC4)cn3)c3c(=O)[nH]ccc3n2)c1)C(F)(F)F` (stereo not drawn) [I-263, 2-[2-fluoro-5-[2,2,2-trifluoro-1-methyl-1-(methyl-amino)ethyl]phenyl]-4-[[5-(4-hydroxy-1-piperidyl)-2-pyridyl]amino]-6H-1,6-naphthyridin-5-one]: the IC50 is at most 100 nM.

On to `COc1cc(-c2cc(Nc3ccc(N4C[C@H]5CC[C@@H](C4)O5)cn3)c3c(=O)[nH]ccc3n2)c(F)cc1C(=O)N1CCCCC1` [I-170, 2-[2-fluoro-5-methoxy-4-(piperidine-1-carbonyl)phenyl]-4-[[5-[(1R,5S)-8-oxa-3-azabicyclo [3.2.1]octan-3-yl]-2-pyridyl]amino]-6H-1,6-naphthyridin-5-one], for which the concentration for half-maximal inhibition (IC50) is 100 to 1000 nM.

With `CC(C)(O)c1ccc(-c2cc(Nc3ccc(N4CCC(O)CC4)cn3)c3c(=O)[nH]ccc3n2)c(F)c1` [I-69, 2-[2-fluoro-4-(1-hydroxy-1-methyl-ethyl)phenyl]-4-[[5-(4-hydroxy-1-piperidyl)-2-pyridyl]amino]-6H-1,6-naphthyridin-5-one], the IC50 fell in the range of 100 to 1000 nM.

As for `COc1cc(-c2cc(Nc3ccc(N4C[C@H]5COC[C@H]5C4)cn3)c3c(=O)[nH]ccc3n2)c(F)cc1C(=O)N1CCCCC1` [I-229, 4-[[5-[(3aR,6aS)-1,3,3a,4,6,6a-hexahydro-furo[3,4-c]pyrrol-5-yl]-2-pyridyl]amino]-2-[2-fluoro-5-methoxy-4-(piperidine-1-carbonyl)phenyl]-6H-1,6-naphthyridin-5-one], the IC50 was in the range of 100 to 1000 nM.

`CC(C)(O)c1ccc(F)c(-c2cc(Nc3ccc(N4CCC(O)CC4)cn3)c3c(=O)[nH]ccc3n2)c1` [I-116, 2-[2-fluoro-5-(1-hydroxy-1-methyl-ethyl)phenyl]-4-[[5-(4-hydroxy-1-piperidyl)-2-pyridyl]amino]-6H-1,6-naphthyridin-5-one]: the IC50 lay in the range of 100 to 1000 nM.

Consider `O=c1[nH]ccc2nc(-c3cc(CN4CCCC4)ccc3F)cc(Nc3ccc(N4CCC(O)CC4)cn3)c12` [I-177, 2-[2-fluoro-5-(pyrrolidin-1-ylmethyl)phenyl]-4-[[5-(4-hydroxy-1-piperidyl)-2-pyridyl]amino]-6H-1,6-naphthyridin-5-one], for which the IC50 is at most 100 nM.

Consider `COc1cc(-c2cc(Nc3ccc(C(=O)N4CCCC4)cc3)c3c(=O)[nH]ccc3n2)c(F)cc1C(=O)N1CCCCC1` [I-165, 2-[2-fluoro-5-methoxy-4-(piperidine-1-carbonyl)phenyl]-4-[4-(pyrrolidine-1-carbonyl)amino]-6H-1,6-naphthyridin-5-one], for which the IC50 is 100 to 1000 nM.

Regarding `CCC1(C(=O)N(C)c2ccc(-c3cc(Nc4ccc(N5CCNCC5)cn4)c4c(=O)[nH]ccc4n3)c(F)c2)CCC1` [I-247, 1-ethyl-N-[3-fluoro-4-[5-oxo-4-[(5-piperazin-1-yl-2-pyridyl)amino]-6H-1,6-naphthyridin-2-yl]phenyl]-N-methyl-cyclobutane-carboxamide], the IC50 is at most 100 nM.

Take `COc1cc(-c2cc(Nc3ccc(N4CCC(O)CC4)cn3)c3c(=O)[nH]ccc3n2)c(F)cc1C(=O)N(C)C` [I-230, 5-fluoro-4-[4-[[5-(4-hydroxy-1-piperidyl)-2-pyridyl]amino]-5-oxo-6H-1,6-naphthyridin-2-yl]-2-methoxy-N,N-dimethyl-benzamide]: the IC50 is at most 100 nM.

Take `CN1CCN(C(=O)c2ccc(-c3cc(Nc4ccc(N5CCC(O)CC5)cn4)c4c(=O)[nH]ccc4n3)c(F)c2)CC1` [I-131, 2-[2-fluoro-4-(4-methyl-piperazine-1-carbonyl)phenyl]-4-[[5-(4-hydroxy-1-piperidyl)-2-pyridyl]amino]-6H-1,6-naphthyridin-5-one]: the IC50 fell in the range of 100 to 1000 nM.

In the case of `O=c1[nH]cnc2cc(-c3c(F)cccc3F)nc(Nc3ccc(N4CCC(O)CC4)cn3)c12` [I-13, 7-(2,6-difluoro-phenyl)-5-[[5-(4-hydroxy-1-piperidyl)-2-pyridyl]amino]-3H-pyrido[4,3-d] pyrimidin-4-one], the IC50 is 100 to 1000 nM.

With `CCn1ccc(Nc2cc(-c3cc(OC)c(C(=O)N4CCCCC4)cc3F)nc3cc[nH]c(=O)c23)nc1=O` [I-228, 4-((1-ethyl-2-oxo-1,2-dihydropyrimidin-4-yl)amino)-2-(2-fluoro-5-methoxy-4-(piperidine-1-carbonyl)phenyl)-1,6-naphthyridin-5(6H)-one], the IC50 was at most 100 nM.

`O=c1[nH]ccc2nc(N3CCCCC3)cc(Nc3ccc(N4CCC(O)CC4)cn3)c12` [I-83, 4-[[5-(4-hydroxy-1-piperidyl)-2-pyridyl]amino]-2-(1-piperidyl)-6H-1,6-naphthyridin-5-one]: the IC50 lay in the range of 100 to 1000 nM.

As for `Cc1c[nH]c(=O)c2c(Nc3ccc(N4CCC(O)CC4)cn3)ccnc12` [I-90, 4-[[5-(4-hydroxy-1-piperidyl)-2-pyridyl]amino]-8-methyl-6H-1,6-naphthyridin-5-one], the IC50 lay within 100 to 1000 nM.

In the case of `CN(C)Cc1ccc(-c2cc(Nc3ccc(N4CCC(O)CC4)cn3)c3c(=O)[nH]ccc3n2)c(F)c1` [I-74, 2-[4-[(dimethyl-amino)methyl]-2-fluoro-phenyl]-4-[[5-(4-hydroxy-1-piperidyl)-2-pyridyl]amino]-6H-1,6-naphthyridin-5-one], the IC50 was at most 100 nM.

`O=c1[nH]ccc2nc(N3CCC4(CCNC4)CC3)cc(Nc3ccc(N4CCC(O)CC4)cn3)c12` [I-235, 2-(2,8-diazaspiro[4.5]decan-8-yl)-4-[[5-(4-hydroxy-1-piperidyl)-2-pyridyl]amino]-6H-1,6-naphthyridin-5-one]: the IC50 was at most 100 nM.

Take `O=C(Nc1ccc(-c2cc(Nc3ccc(N4CC(F)(F)C4)cn3)c3c(=O)[nH]ccc3n2)c(F)c1)C1CCCCC1` [I-201, N-[4-[4-[[5-(3,3-difluoro-azetidin-1-yl)-2-pyridyl]amino]-5-oxo-6H-1,6-naphthyridin-2-yl]-3-fluoro-phenyl] cyclohexane-carboxamide]: the IC50 was at most 100 nM.

In the case of `O=c1[nH]ccc2nc(C3CCCCC3)cc(Nc3ccc(N4CCC(O)CC4)cn3)c12` [I-19, 2-cyclohexyl-4-[[5-(4-hydroxy-1-piperidyl)-2-pyridyl]amino]-6H-1,6-naphthyridin-5-one], the IC50 was 100 to 1000 nM.

In the case of `O=c1[nH]ccc2nc(C3CCNCC3)cc(Nc3ccc(N4CCC(O)CC4)cn3)c12` [I-34, 4-[[5-(4-hydroxy-1-piperidyl)-2-pyridyl]amino]-2-(4-piperidyl)-6H-1,6-naphthyridin-5-one], the IC50 was 100 to 1000 nM.

As for `O=C(c1ccc(F)c(-c2cc(Nc3ccc(N4CCC(O)CC4)cn3)c3c(=O)[nH]ccc3n2)c1)N1CCCCC1` [I-94, 2-[2-fluoro-5-(piperidine-1-carbonyl)phenyl]-4-[[5-(4-hydroxy-1-piperidyl)-2-pyridyl]amino]-6H-1,6-naphthyridin-5-one], the IC50 was at most 100 nM.

`O=c1[nH]ccc2nc(-c3cc4cc[nH]c4cc3F)cc(Nc3ccc(N4CCC(O)CC4)cn3)c12` [I-107, 2-(6-fluoro-1H-indol-5-yl)-4-[[5-(4-hydroxy-1-piperidyl)-2-pyridyl]amino]-6H-1,6-naphthyridin-5-one]: the IC50 was 100 to 1000 nM.

As for `O=c1[nH]ccc2nc(N3CCC4(CCCN4)CC3)cc(Nc3ccc(N4CCC(O)CC4)cn3)c12` [I-236, 2-(1,8-diazaspiro [4.5]decan-8-yl)-4-[[5-(4-hydroxy-1-piperidyl)-2-pyridyl]amino]-6H-1,6-naphthyridin-5-one], the 50% inhibitory concentration (IC50) was in the range of 100 to 1000 nM.

As to `N#CC1CCN(C(=O)c2ccc(-c3cc(Nc4ccc(N5CCC(O)CC5)cn4)c4c(=O)[nH]ccc4n3)c(F)c2)CC1` [I-132, 1-[3-fluoro-4-[4-[[5-(4-hydroxy-1-piperidyl)-2-pyridyl]amino]-5-oxo-6H-1,6-naphthyridin-2-yl]benzoyl] piperidine-4-carbonitrile], the IC50 was in the range of 100 to 1000 nM.

Regarding `CCC1(C(=O)Nc2ccc(-c3cc(Nc4ccc(N5CCC(O)CC5)cn4)c4c(=O)[nH]ccc4n3)c(F)c2)CC1` [I-223, 1-ethyl-N-[3-fluoro-4-[4-[[5-(4-hydroxy-1-piperidyl)-2-pyridyl]amino]-5-oxo-6H-1,6-naphthyridin-2-yl]phenyl] cyclopropane-carboxamide], the IC50 was at most 100 nM.

Turning to `CN(C)C(=O)c1ccc(-c2cc(Nc3ccc(N4CCC(O)CC4)cn3)c3c(=O)[nH]ccc3n2)c(F)c1` [I-62, 3-fluoro-4-[4-[[5-(4-hydroxy-1-piperidyl)-2-pyridyl]amino]-5-oxo-6H-1,6-naphthyridin-2-yl]-N,N-dimethyl-benzamdie], the concentration for half-maximal inhibition (IC50) was 100 to 1000 nM.

For `O=c1[nH]ccc2nc(-c3ccc(CN4CCOCC4)cc3F)cc(Nc3ccc(N4CCC(O)CC4)cn3)c12` [I-181, 2-[2-fluoro-4-(morpholino-methyl)phenyl]-4-[[5-(4-hydroxy-1-piperidyl)-2-pyridyl]amino]-6H-1,6-naphthyridin-5-one], the IC50 was above 1000 nM.

`NC(=O)c1ccc(-c2cc(Nc3ccc(N4CCC(O)CC4)cn3)c3c(=O)[nH]ccc3n2)c(F)c1` [I-72, 3-fluoro-4-[4-[[5-(4-hydroxy-1-piperidyl)-2-pyridyl]amino]-5-oxo-6H-1,6-naphthyridin-2-yl] benzamide]: the IC50 lay in the range of 100 to 1000 nM.

As to `CCNC(=O)c1ccc(Nc2cc(C(C)C)nc3cc[nH]c(=O)c23)cc1` [I-29, N-ethyl-4-[(2-isopropyl-5-oxo-6H-1,6-naphthyridin-4-yl)amino] benzamide], the IC50 lay within 100 to 1000 nM.

For the compound `COc1cc(-c2cc(Nc3ccc(N4CCC(O)CC4)cn3)c3c(=O)[nH]ccc3n2)c(F)cc1C(=O)N1CC2C(C1)C2(F)F` (stereo not drawn) [I-251, 2-[4-(6,6-difluoro-3-azabicyclo [3.1.0]hexane-3-carbonyl)-2-fluoro-5-methoxy-phenyl]-4-[[5-(4-hydroxy-1-piperidyl)-2-pyridyl]amino]-6H-1,6-naphthyridin-5-one], the IC50 is at most 100 nM.
